Reference: patent US20170210778A1, “NOVEL COMPOUNDS” (The Provost, Fellows, Foundation Scholars, and the other …, priority 2014, published 2017)

Assays:
human NOD1 = target: T1, human NOD1 (Homo sapiens, UniProt Q9Y239); assay: NOD1 functional agonist assay, 293hNOD1-SEAP reporter cells; format: cell-based; conditions: 293hNOD1 cells, OD above 3*O.D of negative control
T1 construct: expressed in transfected cells; host or cells: HEK293
T1 sequence (Q9Y239 1-953): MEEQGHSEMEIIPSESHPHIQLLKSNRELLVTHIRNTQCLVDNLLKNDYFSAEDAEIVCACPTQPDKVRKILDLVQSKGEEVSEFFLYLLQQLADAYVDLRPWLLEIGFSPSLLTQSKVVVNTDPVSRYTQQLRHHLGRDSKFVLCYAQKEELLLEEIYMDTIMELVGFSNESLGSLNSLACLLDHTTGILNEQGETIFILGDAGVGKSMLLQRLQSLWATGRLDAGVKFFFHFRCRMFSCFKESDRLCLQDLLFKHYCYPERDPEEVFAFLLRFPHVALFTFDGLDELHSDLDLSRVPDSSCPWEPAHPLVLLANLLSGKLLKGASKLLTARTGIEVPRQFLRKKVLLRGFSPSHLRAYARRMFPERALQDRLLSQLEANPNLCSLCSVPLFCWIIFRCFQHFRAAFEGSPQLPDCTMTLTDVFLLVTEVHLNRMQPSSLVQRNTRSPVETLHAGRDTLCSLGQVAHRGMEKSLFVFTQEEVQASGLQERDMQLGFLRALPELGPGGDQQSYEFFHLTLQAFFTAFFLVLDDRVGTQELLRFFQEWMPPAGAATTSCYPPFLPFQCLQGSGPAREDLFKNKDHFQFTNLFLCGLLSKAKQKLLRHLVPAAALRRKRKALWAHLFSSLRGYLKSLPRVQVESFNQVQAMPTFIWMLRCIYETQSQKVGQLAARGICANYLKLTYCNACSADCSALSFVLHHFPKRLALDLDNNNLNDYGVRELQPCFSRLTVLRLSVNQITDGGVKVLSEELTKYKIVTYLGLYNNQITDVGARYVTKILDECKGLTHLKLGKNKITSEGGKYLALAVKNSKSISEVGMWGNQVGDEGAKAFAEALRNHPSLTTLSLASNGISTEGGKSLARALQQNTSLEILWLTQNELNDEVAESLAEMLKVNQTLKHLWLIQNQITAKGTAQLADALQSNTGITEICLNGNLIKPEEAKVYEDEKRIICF
Text: (§1) HEK293 cells were stably transfected with plasmid for the overexpression of the NOD1 genes and a reporter plasmid expressing a secreted embryonic alkaline phosphatase (SEAP) gene under the control of a promoter inducible by the transcription factors NF-κB and AP-1. These cells are referred herein as 293hNOD1-SEAP (for cells overexpressing the human NOD1 gene) and 293mNOD1-SEAP (for cells overexpressing the murine NOD1 gene). Upon NOD1 stimulation, these cells induce the activation of NF-κB and AP-1 and subsequently the secretion of SEAP. The reporter protein is easily detectable and measurable when using QUANTI-Blue™ (InvivoGen, San Diego, Calif.), a medium that turns purple/blue in the presence of SEAP.
(§2) The biological activity of the compounds of the invention tested using 293hNOD1 and 293mNOD1 cells. SEAP expression was measured using the commercially available SEAP detection kit (HEK-Blue™ Detection, InvivoGen). The SEAP activity in cells was quantified using the microplate reader (FLUOStar OPTIMA, BMG laboratories), the absorbance values were read using filter with excitation at 620 nm and emission at 655 nm. The results provided in Table 2 were expressed as the concentration were a significant mean optical density (OD) can be observed (above 3*O.D of negative control). As a positive control, the NOD1 pathway was stimulated with commercially available iE-DAP (InvivoGen) and C12-iE-DAP (an acylated derivative of DAP; InvivoGen). As a negative control endotoxin-free water was used. Additionally, 293 cells expressing the SEAP gene but not the NOD1 gene were used as a control.

murine NOD1 = target: T2, murine NOD1 (Mus musculus, UniProt Q8BHB0); assay: NOD1 functional agonist assay, 293mNOD1-SEAP reporter cells; format: cell-based; conditions: 293mNOD1 cells, OD above 3*O.D of negative control
T2 construct: expressed in transfected cells; host or cells: HEK293
T2 sequence (Q8BHB0 1-953): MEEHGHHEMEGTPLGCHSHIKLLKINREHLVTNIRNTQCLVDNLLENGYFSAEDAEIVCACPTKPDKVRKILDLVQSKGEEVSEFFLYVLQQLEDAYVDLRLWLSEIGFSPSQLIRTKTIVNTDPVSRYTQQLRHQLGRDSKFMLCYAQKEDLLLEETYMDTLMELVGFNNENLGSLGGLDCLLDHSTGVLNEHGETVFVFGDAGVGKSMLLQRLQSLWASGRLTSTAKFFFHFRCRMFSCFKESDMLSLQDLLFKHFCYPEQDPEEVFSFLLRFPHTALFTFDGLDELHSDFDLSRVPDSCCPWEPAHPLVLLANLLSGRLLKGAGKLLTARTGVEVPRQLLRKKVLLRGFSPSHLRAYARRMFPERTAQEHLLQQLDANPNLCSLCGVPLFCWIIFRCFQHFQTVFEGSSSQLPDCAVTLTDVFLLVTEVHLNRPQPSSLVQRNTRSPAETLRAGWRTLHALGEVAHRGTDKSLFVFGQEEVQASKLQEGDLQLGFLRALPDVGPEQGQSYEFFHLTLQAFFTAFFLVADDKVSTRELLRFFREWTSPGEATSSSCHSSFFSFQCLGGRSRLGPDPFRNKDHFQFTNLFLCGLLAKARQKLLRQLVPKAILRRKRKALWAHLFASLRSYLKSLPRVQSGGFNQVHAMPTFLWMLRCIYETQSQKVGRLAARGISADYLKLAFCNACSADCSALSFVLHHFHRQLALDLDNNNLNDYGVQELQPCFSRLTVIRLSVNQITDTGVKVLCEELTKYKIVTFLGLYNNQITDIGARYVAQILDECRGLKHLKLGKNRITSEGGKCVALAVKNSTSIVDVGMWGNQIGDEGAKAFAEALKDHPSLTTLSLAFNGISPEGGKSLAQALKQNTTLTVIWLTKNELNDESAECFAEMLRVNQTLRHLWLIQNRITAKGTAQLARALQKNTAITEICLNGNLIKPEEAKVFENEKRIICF
Text: as §1, §2

Compound | hNod1: concentration where a significant mean optical density (OD) can be observed (human NOD1) [µg/mL] | mNod1: concentration where a significant mean optical density (OD) can be observed (murine NOD1) [µg/mL]
CCCCCCC(=O)N[C@@H](C)C(=O)N[C@H](CCC(=O)N[C@H](CSC[C@H](N)C(=O)O)C(=O)N[C@H](C)C(=O)O)C(=O)O [Example 19, N^5-((S)-3-(((R)-2-amino-2-carboxyethyl)thio)-1-(((R)-1-carboxyethyl)amino)-1-oxopropan-2-yl)-N^2-(heptanoyl-L-alanyl)-D-glutamine] | 0.1 | 0.1
CCCCCCCCCCCC(=O)N[C@H](CCC(=O)N[C@H](CSC[C@H](N)C(=O)O)C(=O)O)C(=O)O [Example 3, N^5-((S)-2-(((R)-2-amino-2-carboxyethyl)thio)-1-carboxyethyl)-N^2-dodecanoyl-D-glutamine] | 0.01 | 0.1
CCCCCCCCCCCC(=O)N[C@H](CCC(=O)N[C@H](CSC[C@H](N)C(=O)O)C(=O)N[C@H](C)C(=O)O)C(=O)O [Example 16, N^5-((S)-3-(((R)-2-amino-2-carboxyethyl)thio)-1-(((R)-1-carboxyethyl)amino)-1-oxopropan-2-yl)-N^2-dodecanoyl-D-glutamine] | 0.01 | 0.001
CC[C@@H](C)[C@H](N)C(=O)N[C@H](CCC(=O)N[C@H](CSC[C@H](N)C(=O)O)C(=O)O)C(=O)O [Example 7, N^2-(L-alloisoleucyl)-N^5-((S)-2-(((R)-2-amino-2-carboxyethyl)thio)-1-carboxyethyl)-D-glutamine] | 0.1 | 1
CCCCCCCCCCCCCC(=O)N[C@H](CCC(=O)N[C@@H](COC[C@@H](N)C(=O)O)C(=O)O)C(=O)O [Example 35, N^5-((S)-2-((R)-2-amino-2-carboxyethoxy)-1-carboxyethyl)-N^2-tetradecanoyl-D-glutamine] | 0.01 | 0.01
N[C@H](CCC(=O)N[C@H](CSC[C@H](N)C(=O)O)C(=O)O)C(=O)O [Example 1, N^5-((S)-2-(((R)-2-amino-2-carboxyethyl)thio)-1-carboxyethyl)-D-glutamine] | 1 | 10
CCCCCCCCCCCCCC(=O)N[C@H](CCC(=O)N[C@H](CSC[C@H](N)C(=O)O)C(=O)N[C@H](C)C(=O)O)C(=O)O [Example 17, N^5-((S)-3-(((R)-2-amino-2-carboxyethyl)thio)-1-(((R)-1-carboxyethyl)amino)-1-oxopropan-2-yl)-N^2-tetradecanoyl-D-glutamine] | 0.01 | 0.001
CCCCCCCCCCCCCC(=O)N[C@@H](C)C(=O)N[C@H](CCC(=O)N[C@H](CSC[C@H](N)C(=O)O)C(=O)N[C@H](C)C(=O)O)C(=O)O [Example 21, N^5-((S)-3-(((R)-2-amino-2-carboxyethyl)thio)-1-(((R)-1-carboxyethyl)amino)-1-oxopropan-2-yl)-N^2-(tetradecanoyl-L-alanyl)-D-glutamine] | 0.01 | 0.001
CC(C)[C@H](N)C(=O)N[C@H](CCC(=O)N[C@H](CSC[C@H](N)C(=O)O)C(=O)O)C(=O)O [Example 8, N^2-(L-valyl)-N^5-((S)-2-(((R)-2-amino-2-carboxyethyl)thio)-1-carboxyethyl)-D-glutamine] | 0.1 | 1
N[C@H](CCC(=O)N[C@@H](COC[C@@H](N)C(=O)O)C(=O)O)C(=O)O [Example 34, N^5-((S)-2-((R)-2-amino-2-carboxyethoxy)-1-carboxyethyl)-D-glutamine] | 10 | 10
CC(C)C[C@H](N)C(=O)N[C@H](CCC(=O)N[C@H](CSC[C@H](N)C(=O)O)C(=O)O)C(=O)O [Example 6, N^2-(L-leucyl)-N^5-((S)-2-(((R)-2-amino-2-carboxyethyl)thio)-1-carboxyethyl)-D-glutamine] | 0.1 | 1
N[C@H](CCC(=O)N[C@H](CSC[C@H](N)C(=O)O)C(=O)NCC(=O)O)C(=O)O [Example 22, N^5-((S)-3-(((R)-2-amino-2-carboxyethyl)thio)-1-((carboxymethyl)amino)-1-oxopropan-2-yl)-D-glutamine] | 1 | 10
C[C@H](N)C(=O)N[C@H](CCC(=O)N[C@H](CSC[C@H](N)C(=O)O)C(=O)NCC(=O)O)C(=O)O [Example 26, N^2-(L-alanyl)-N^5-((S)-3-(((R)-2-amino-2-carboxyethyl)thio)-1-((carboxymethyl)amino)-1-oxopropan-2-yl)-D-glutamine] | 10 | 0.1
CCCCCCCCCCCCCC(=O)N[C@@H](Cc1ccccc1)C(=O)N[C@H](CCC(=O)N[C@H](CSC[C@H](N)C(=O)O)C(=O)O)C(=O)O [Example 13, N^5-((S)-2-(((R)-2-amino-2-carboxyethyl)thio)-1-carboxyethyl)-N^2-(tetradecanoyl-L-phenylalanyl)-D-glutamine] | 0.001 | 1
